# Entries after “also recorded” stand apart in the source; their conditions may differ.
# What was measured:
# [1] = target: T1, MMLV reverse transcriptase (Moloney murine leukemia virus, UniProt P03355); assay: Reverse transcription reaction (RETROscript kit), dCTP[α-32P] incorporation; assay type: biochemical; details: 20 mM reducing reagent
# T1 construct: purchased Ambion, Inc
# Protocol: (§1) FIG. 2. […] Reverse transcriptions were performed using the RETROscript™ kit (Ambion, Inc.). Mouse total RNA in DEPC-treated water was reverse transcribed with either MMLV or AMV reverse transcriptase in the presence or absence of 20 mM DTT. dCTP[α^32P] was included in the reactions to measure the efficiency of reverse transcription. Following incubation at 42° C. for 1 h, 5 μl of each reaction was subjected to TCA precipitation to measure the amount of dCTP[α^32P] incorporated into cDNA by reverse transcription.
# (§2) The reverse transcription reactions were performed using the RETROscript™ kit (Ambion, Inc.). The following were assembled with or without 20 mM of the reducing reagents in a final volume of 19 μl: dNTPs (0.5 mM each), oligo dT (5 μM), 0.4 μl dCTP[α-^32p] (3000 Ci/mmol), 10 mM Tris-HCl (pH 8.3): 50 mM KCl: 1.5 mM MgCl2, mouse brain total RNA (4 μg). The reaction mixtures were incubated at 65° C. for 10 minutes. 1 μl (100 units) of AMV or MMLV reverse transcriptase were added and then the reactions were incubated at 42° C. for 1 hour. Reverse transcription by either enzyme was not inhibited by DTT (FIG. 2) or by DTE or β-mercaptoethanol.
# [2] = tested on: AMV reverse transcriptase; assay: as above; assay type: biochemical; details: 20 mM reducing reagent
# Protocol: as §1, §2
# [3] = pH 7.0; cited from earlier work
# [4] = tested on: RNase mixture (RNase A, RNase 1, RNase T1); assay: Non-isotopic RNase inactivation assay (mouse total RNA, agarose gel); assay type: biochemical, human, E. coli and a fungus; set-up: key to RNase Inactivation Water / RNase Inactivation Buffer A / RNase Inactivation Buffer B / RNase Inactivation Buffer C: (+) indicates that the RNase mixture was inactivated; (−) indicates that the RNase mixture was not activated as determined by the non-isotopic assay; details: for RNase Inactivation Buffer B: 50 mM Tris-HCl (pH 7.0); for RNase Inactivation Buffer C: 30 mM NaCl, 3 mM sodium citrate (pH 7.5)
# Excerpt: The inventors routinely perform assays on RNA designed to assess RNase activity in a sample. Two different assays are typically used for the detection of ribonuclease activity, non-isotopic and isotopic. […] In both assays, the inactivation process is typically performed on a mixture of three different ribonucleases: RNase A, RNase 1, and RNase T1. Each ribonuclease is purified from a different species: […], E. coli and a fungus, respectively. The three RNases are very different from each other in their origin, substrate specificity and protein sequence. In this way, the inactivation process can test three completely different but well characterized ribonucleases. The standard stock RNase mixture employed in the following examples is prepared by combining 1 μl RNase 1 (100 U/μl; Ambion), 1 μl RNase cocktail (RNase A, 0.5 U/μl; RNase T1, 20 U/μl, Ambion) and 98 μl water. The non-isotopic assay uses total RNA isolated from mouse as the substrate for the RNase mixture. […] A quantity of 4 μg of total RNA isolated from mouse liver or brain was dissolved in an aqueous solution, usually water or 1 mM sodium citrate (pH 6.6). The treated ribonuclease sample was added to the total RNA and then incubated at 37° C. for 1 or 16 hours, depending on the sensitivity desired for the assay. After incubation, the RNA was fractionated in a formaldehyde 1% agarose gel. The RNA was detected by staining with ethidium bromide and then illuminating the gel with ultraviolet light. The RNA fluoresces in the gel. Untreated total RNA was also fractionated as a control with the test samples for comparative purposes. […] Intact total RNA has two major bands produced by the 28S and 18S ribosomal RNA. […] The RNase cocktail was made to various concentrations in different buffers in different DTT concentrations and incubated at 37° C. or 60° C. for 20 minutes. Total mouse RNA was added to the treated RNase mixture and incubated at 37° C. for one hour, fractionated in a formaldehyde denaturing 1% agarose gel and the RNA visualized by ethidium bromide staining and UV fluorescence.
# RNase A = target: T2, RNase A (Bos taurus, UniProt P61823); details: RNase A 10 μg/ml; 4 mM DTT; 4° C. for 20 minutes; cited from earlier work
# T2 sequence (P61823 27-150): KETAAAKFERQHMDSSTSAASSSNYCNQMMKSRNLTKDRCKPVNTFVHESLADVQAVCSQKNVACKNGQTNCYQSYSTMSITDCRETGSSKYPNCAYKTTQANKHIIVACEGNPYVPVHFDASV
# [5] = RNase Mix 64 ng/ml, DTT 5 mM, 60° C. for 20 minutes
# [6] = RNase Mix 64 ng/ml, DTT 10 mM, 37° C. for 20 minutes
# [7] = RNase Mix 64 ng/ml, DTT 10 mM, 60° C. for 20 minutes
# [8] = RNase Mix 95 ng/ml, DTT 5 mM, 60° C. for 20 minutes
# [9] = RNase Mix 95 ng/ml, DTT 10 mM, 37° C. for 20 minutes
# [10] = RNase Mix 95 ng/ml, DTT 10 mM, 60° C. for 20 minutes
# [11] = RNase Mix 191 ng/ml, DTT 5 mM, 60° C. for 20 minutes
# [12] = RNase Mix 191 ng/ml, DTT 10 mM, 37° C. for 20 minutes
# [13] = RNase Mix 191 ng/ml, DTT 10 mM, 60° C. for 20 minutes
# [14] = RNase Mix 191 ng/ml, DTT 20 mM, 60° C. for 20 minutes
# [15] = RNase Mix 954 ng/ml, DTT 5 mM, 60° C. for 20 minutes
# [16] = RNase Mix 954 ng/ml, DTT 10 mM, 37° C. for 20 minutes
# [17] = RNase Mix 954 ng/ml, DTT 10 mM, 60° C. for 20 minutes
# [18] = RNase Mix 954 ng/ml, DTT 20 mM, 60° C. for 20 minutes
structure (smiles),measurement,setting,value
"O[C@H](CS)[C@H](O)CS [DTT, dithiothreitol]",inhibition of reverse transcription by MMLV reverse transcriptase,[1],does not inhibit; also recorded: not inhibited
same,inhibition of reverse transcription by AMV reverse transcriptase,[2],does not inhibit; also recorded: not inhibited
same,redox potential,[3],−0.33 volts
same,concentration of RNase mixture completely inactivated,"[4]; 20 mM DTT, 1 mM sodium citrate (pH 6.4), 60° C. for 20 minutes, non-isotopic assay, 1 hour incubation",up to 200 ng/ml
same,inactivation of sequentially added RNases,"[4]; 20 mM DTT, 1 mM sodium citrate (pH 6.4), RNases 200 ng/ml per addition, heating at 60° C. for 20 minutes after each addition",completely inactivated
same,concentration of RNase mixture completely inactivated in the presence of RNA,"[4]; 20 mM DTT, mouse liver total RNA 4 μg/10 μl, 1 mM sodium citrate (pH 6.4), 60° C. for 20 minutes",up to 3.125 ng/ml
same,effect of sequentially added RNases without reheating,"[4]; 20 mM DTT, same buffer, not subjected to the 60° C. incubation",complete RNA degradation
same,60° C. incubation time required for inactivation,"[4]; RNase 200 ng/ml, 20 mM DTT, 60° C.",at least 4 minutes
same,RNase Inactivation Buffer A,"[4]; RNase Mix 64 ng/ml, DTT 5 mM, 60° C. for 20 minutes, 1 mM sodium citrate (pH 6.4)",+
same,RNase Inactivation Buffer B,[4]; [5],+
same,RNase Inactivation Buffer C,[4]; [5],+
same,RNase Inactivation Water,[4]; [5],+
same,RNase Inactivation Buffer A,"[4]; RNase Mix 64 ng/ml, DTT 10 mM, 37° C. for 20 minutes, 1 mM sodium citrate (pH 6.4)",+
same,RNase Inactivation Buffer B,[4]; [6],+
same,RNase Inactivation Buffer C,[4]; [6],+
same,RNase Inactivation Water,[4]; [6],+
same,RNase Inactivation Buffer A,"[4]; RNase Mix 64 ng/ml, DTT 10 mM, 60° C. for 20 minutes, 1 mM sodium citrate (pH 6.4)",+
same,RNase Inactivation Buffer B,[4]; [7],+
same,RNase Inactivation Buffer C,[4]; [7],+
same,RNase Inactivation Water,[4]; [7],+
same,RNase Inactivation Buffer A,"[4]; RNase Mix 95 ng/ml, DTT 5 mM, 60° C. for 20 minutes, 1 mM sodium citrate (pH 6.4)",−
same,RNase Inactivation Buffer B,[4]; [8],−
same,RNase Inactivation Buffer C,[4]; [8],−
same,RNase Inactivation Water,[4]; [8],−
same,RNase Inactivation Buffer A,"[4]; RNase Mix 95 ng/ml, DTT 10 mM, 37° C. for 20 minutes, 1 mM sodium citrate (pH 6.4)",−
same,RNase Inactivation Buffer B,[4]; [9],−
same,RNase Inactivation Buffer C,[4]; [9],−
same,RNase Inactivation Water,[4]; [9],−
same,RNase Inactivation Buffer A,"[4]; RNase Mix 95 ng/ml, DTT 10 mM, 60° C. for 20 minutes, 1 mM sodium citrate (pH 6.4)",+
same,RNase Inactivation Buffer B,[4]; [10],+
same,RNase Inactivation Buffer C,[4]; [10],+
same,RNase Inactivation Water,[4]; [10],+
same,RNase Inactivation Buffer A,"[4]; RNase Mix 191 ng/ml, DTT 5 mM, 60° C. for 20 minutes, 1 mM sodium citrate (pH 6.4)",−
same,RNase Inactivation Buffer B,[4]; [11],−
same,RNase Inactivation Buffer C,[4]; [11],−
same,RNase Inactivation Water,[4]; [11],−
same,RNase Inactivation Buffer A,"[4]; RNase Mix 191 ng/ml, DTT 10 mM, 37° C. for 20 minutes, 1 mM sodium citrate (pH 6.4)",−
same,RNase Inactivation Buffer B,[4]; [12],−
same,RNase Inactivation Buffer C,[4]; [12],−
same,RNase Inactivation Water,[4]; [12],−
same,RNase Inactivation Buffer A,"[4]; RNase Mix 191 ng/ml, DTT 10 mM, 60° C. for 20 minutes, 1 mM sodium citrate (pH 6.4)",+
same,RNase Inactivation Buffer B,[4]; [13],+
same,RNase Inactivation Buffer C,[4]; [13],+
same,RNase Inactivation Water,[4]; [13],+
same,RNase Inactivation Buffer A,"[4]; RNase Mix 191 ng/ml, DTT 20 mM, 60° C. for 20 minutes, 1 mM sodium citrate (pH 6.4)",+
same,RNase Inactivation Buffer B,[4]; [14],+
same,RNase Inactivation Buffer C,[4]; [14],+
same,RNase Inactivation Water,[4]; [14],+
same,RNase Inactivation Buffer A,"[4]; RNase Mix 954 ng/ml, DTT 5 mM, 60° C. for 20 minutes, 1 mM sodium citrate (pH 6.4)",−
same,RNase Inactivation Buffer B,[4]; [15],−
same,RNase Inactivation Buffer C,[4]; [15],−
same,RNase Inactivation Water,[4]; [15],−
same,RNase Inactivation Buffer A,"[4]; RNase Mix 954 ng/ml, DTT 10 mM, 37° C. for 20 minutes, 1 mM sodium citrate (pH 6.4)",−
same,RNase Inactivation Buffer B,[4]; [16],−
same,RNase Inactivation Buffer C,[4]; [16],−
same,RNase Inactivation Water,[4]; [16],−
same,RNase Inactivation Buffer A,"[4]; RNase Mix 954 ng/ml, DTT 10 mM, 60° C. for 20 minutes, 1 mM sodium citrate (pH 6.4)",−
same,RNase Inactivation Buffer B,[4]; [17],−
same,RNase Inactivation Buffer C,[4]; [17],−
same,RNase Inactivation Water,[4]; [17],−
same,RNase Inactivation Buffer A,"[4]; RNase Mix 954 ng/ml, DTT 20 mM, 60° C. for 20 minutes, 1 mM sodium citrate (pH 6.4)",+
same,RNase Inactivation Buffer B,[4]; [18],+
same,RNase Inactivation Buffer C,[4]; [18],+
same,RNase Inactivation Water,[4]; [18],+
same,RNase mixture inactivation,"[4]; RNase mixture 64 ng/ml, 10 mM DTT, 37° C. for 20 minutes",inactivated
same,RNase activity inactivated,"[4]; RNase mixture 200 ng/ml, 20 mM DTT, 60° C. for 1 minute",approximately 50%
same,RNase activity inactivated,"[4]; RNase mixture 200 ng/ml, 20 mM DTT, 60° C. for 2 minutes",~80%
same,RNase activity inactivated,"[4]; RNase mixture 200 ng/ml, 20 mM DTT, 60° C. for 4 minutes",~100%
same,RNase inactivation in different buffers and solutions,"[4]; RNase mixture 200 ng/ml, 20 mM DTT, 60° C. for 20 minutes, 17 solutions, non-isotopic",inactivated RNase activity in all of buffers and solutions tested
same,RNase mixture inactivation,"[4]; RNase mixture 200 ng/ml, 20 mM DTT, 60° C. for less than 30 seconds",did not inactivate
same,RNase mixture inactivation,"[4]; RNase mixture 954 ng/ml, 20 mM DTT, 60° C. for 20 minutes",inactivated
same,RNase activity on retest after storage,[4]; solutions with inactivated RNases stored at 4° C. for one month,none of the solutions had detectable RNase activity
same,"RNase A activity (Boshes, 1970)",RNase A,inhibited

# From patent US6825340B2, “Methods and reagents for inactivating ribonucleases” (Ambion, Inc., priority 1998, dated 2004)
